# Like-named read-outs stand apart in the source and are kept apart here. Non-standard residues stand in square brackets, D forms with d. No end group written: not given here.
# Legend:
# [1] = 4th ventricle intracerebroventricular injection, food intake and body weight in DIO rats; type: in vivo, rat; conditions: for food intake compared to control: SU75-36 20, 100 or 200 μg, SU75-37 20 μg, 60% HFD, 1, 3, 6, 24 h
# Procedure: (§1) Adult male Sprague-Dawley rats (Charles River) were individually housed under a 12 h-light: 12 h-dark cycle in a temperature and humidity-controlled satellite vivarium and had ad libitum access to water and chow (5001, LabDiet) or a 60% high fat diet (HFD): D12492, Research Diets) and when applicable had ad libitum access to kaolin pellets (K50001, Research Diets). Rats were exposed to kaolin for at least 5 days prior to measuring kaolin consumption in pica testing. Except for studies conducted in the bioDAQ, for all feeding studies rats were housed in hanging wire cages to allow for accurate measurement of food spillage. Experiments were conducted under the National Institutes for Health Guide for the Care and Use of Laboratory Animals and all procedures were approved by the Institutional Animal Care and Use Committee at the University of Pennsylvania.
# (§2) For cannula implantation, rats were anesthetized by intraperitoneal injection of a mixture containing ketamine (90 mg/kg, Butler Animal Health Supply), xylazine (2.7 mg/kg, Anased), and acepromazine (0.64 mg/kg, Butler Animal Health Supply) (KAX) and then placed into a stereotaxic apparatus. Each rat was stereotaxically implanted with a guide cannula (26-ga, Plastics One) aimed at the fourth ventricle (guide cannula coordinates: on midline. 2.5 mm anterior to occipital suture, 5.2 mm ventral to skull; internal cannula aimed 7.2 mm ventral to skull) or the lateral ventricle (guide cannula coordinates: 1.5 mm lateral to midline, 0.9 mm posterior to bregma. 1.8 mm ventral to skull; internal cannula aimed 3.8 mm ventral to skull). For all cannulas, dummies (no projection beyond guide) were inserted in the guide cannula and left until infusions were performed. For all surgeries, rats received post-operative temperature support and analgesia was provided immediately following surgery and for two post-operative days (2 mg/kg meloxicam).
# For all studies measuring food intake following drug treatment, central injections were given at a volume of 2 μL using a Hamilton syringe terminating in an injector tip extending 2.0 mm beyond the guide cannula. For acute treatment days, rats were food deprived for 2 hours before the dark cycle and injections were done immediately prior to the dark cycle onset. Food and kaolin intake was measured 1, 3, 6, and 24 hours after injections were completed and food crumbs were weighed and accounted for between each timepoint. Body weight was measured during injections and 24 hours after. Injection treatments were organized in a counterbalanced, within-subjects design and separated by ≥72 h. […]
# Rats were weighed at the beginning of the experiment and 24 hours after administration of the GPR75 inhibitor. The weight change of each rat after 24 hours was then calculated. […]
# [2] = Peripheral (IP) administration, food intake and body weight in DIO mice; type: in vivo, mouse; conditions: for 24 h food intake: IP 0.5 and 5 mg/kg, male HFD fed mice (FIG. 12 legend)
# Procedure: DIO mice were administered 0.5 mg/kg or 5.0 mg/kg of either SU75-36 or SU75-37 in a vehicle by […] injection and observed over 24 hours. One group of mice was administered a vehicle as a negative control. All mice were given ad libitum access to water and a 60% HFD. […] (FIGS. 12A and 12C). […] Mice were weighed at the beginning of the experiment and 24 hours after administration. The weight change of each mouse after 24 hours was then calculated. […] (FIGS. 12B and 12D) This experiment was then repeated for SU75-37 at a higher dose (10 mg/kg). […] (FIG. 13A).
# [3] = Lateral intraventricular injection in HEPES buffer, food intake and body weight in DIO rats; type: in vivo, rat; conditions: lateral ventricle; for food intake compared to control: 60% HFD, 1, 3, 6, 24 h
# Procedure: Diet induced obese (DIO) rats (n=4) were administered 150 μg/3 μL SU75-36 in a vehicle or in a HEPES buffer by lateral intraventricular injection and observed over 24 hours. One group of rats was administered a Vehicle of 50% DMSO in HEPES as a negative control. All rats were given ad libitum access to water and 60% HFD. […] (FIG. 10A). […] Rats were weighed at the beginning of the experiment and 24 hours after administration. The weight change of each rat after 24 hours was then calculated. […] (FIG. 10B). In a separate experiment, diet induced obese (DIO) rats (n=4) were administered 133 μg/2 μL SU75-37 in a HEPES buffer by lateral intraventricular injection and observed over 24 hours. One group of rats was administered a vehicle without a GPR75 inhibitor as a negative control. All rats were given ad libitum access to water and a 60% high fat diet (HFD). SU75-37 was optimized using an acetate salt precipitation rather than a TFA salt precipitation to maintain a neutral >4.5 pH in HEPES buffer solution. The food intake of each rat was observed 1, 3, 6, and 24 hours after administration. […] Rats were weighed at the beginning of the experiment and 24 hours after administration. The weight change of each rat after 24 hours was then calculated. […] (FIG. 11B).
# [4] = type: in vivo, rat; conditions: for food intake compared to control: SU75-36 20 or 200 μg, SU75-37 20 μg, 1, 3, 6, 24 h; for body weight change after 24 hours: any dosage, rats fed chow or HFD; for kaolin intake (pica, model of malaise and nausea): rat, in vivo
# Procedure: as §1, §2
# For all studies measuring food intake following drug treatment, central injections were given at a volume of 2 μL using a Hamilton syringe terminating in an injector tip extending 2.0 mm beyond the guide cannula. For acute treatment days, rats were food deprived for 2 hours before the dark cycle and injections were done immediately prior to the dark cycle onset. Food and kaolin intake was measured 1, 3, 6, and 24 hours after injections were completed and food crumbs were weighed and accounted for between each timepoint. Body weight was measured during injections and 24 hours after. Injection treatments were organized in a counterbalanced, within-subjects design and separated by ≥72 h.
# In a separate experiment, chow maintained (n=10) and diet-induced obese (DIO) rats (n=12) were administered 20 μg SU75-36, 200 μg SU75-36, or 20 μg SU75-37 by intracerebroventricular injection to the lateral ventricle and observed over 24 hours. One group of rats was administered a vehicle without a GPR75 inhibitor as a negative control. All rats were given ad libitum access to access to water, kaolin pellets to assess pica behavior, and food, either a standard chow diet or a 60% high fat diet (HFD). The food intake of chow (FIG. 8A) or HFD (FIG. 8B), and kaolin take of chow-maintained rats (FIG. 8C) and HFD-maintained rats (FIG. 8D) of each rat was observed 1, 3, 6, and 24 hours after administration of the GPR75 inhibitor.
# Rats were weighed at the beginning of the experiment and 24 hours after administration of the GPR75 inhibitor. The weight change of each rat after 24 hours was then calculated. […] (FIGS. 8E, 8F).
# [5] = 5 mg/kg peripheral injection, DIO mice, 60% HFD, 3 and 24 h
# [6] = lateral ventricle, chow and HFD rats
substance,measurement,setting,value
H[dS]QGTFTSDLSKYLEEEVREFIWLKNGGPSDVNTDRPGLLDLK-NH2 [SU75-36],food intake compared to any of the other groups,"[1]; 200 μg, 60% HFD",further decrease
same,food intake compared to control,[1],significant decrease in food intake
same,body weight change after 24 hours,"[1]; any amount (20, 100, 200 μg), 60% HFD",significant decrease in weight
same,food intake compared to control,[2]; [5],significant decrease in food intake
same,body weight change after 24 hours,"[2]; 0.5 or 5.0 mg/kg peripheral injection, DIO mice",significant decrease in weight
same,24 h food intake,[2],suppresses
same,food intake compared to any of the other groups,"[3]; 150 μg/3 μL in HEPES buffer, DIO rats",further decrease
same,food intake compared to control,"[3]; 150 μg/3 μL in vehicle (50% DMSO in HEPES) or HEPES buffer, DIO rats",significant decrease in food intake
same,food intake compared to control,"[3]; 150 μg/3 μL in vehicle (50% DMSO in HEPES) or HEPES buffer, DIO rats, listed as 36",suppresses
same,body weight change after 24 hours compared to any other of the groups,"[3]; 150 μg/3 μL with HEPES buffer, DIO rats",further decrease
same,body weight change after 24 hours,"[3]; 150 μg/3 μL, DIO rats",significant decrease in weight
same,food intake compared to any of the other groups,"[4]; lateral ventricle, 200 μg, chow and HFD rats",further decrease
same,food intake compared to control,[4]; [6],significant decrease in food intake
same,body weight change after 24 hours,[4]; lateral ventricle,significant decrease in weight
same,"kaolin intake (pica, model of malaise and nausea)",[4],absence of kaolin intake
TFTSDLSKYLEEEVREFIWLKNGGPSDVNTDRPGLLDLK-NH2 [SU75-37],food intake compared to control,[1],significant decrease in food intake
same,food intake compared to control,[2]; [5],significant decrease in food intake
same,body weight change after 24 hours,"[2]; IP 10 mg/kg, HFD fed mice",significant decrease in weight
same,food intake compared to control,"[2]; IP 10 mg/kg, HFD fed mice, 10 mg/kg",significant decrease in food intake
same,food intake compared to control,"[2]; IP 10 mg/kg, HFD fed mice, listed as 37, 10 mg/kg",suppresses
same,24 h food intake,[2],suppresses
same,food intake compared to control,"[3]; 133 μg/2 μL in HEPES buffer, acetate salt precipitation, DIO rats",significant decrease in food intake
same,body weight change after 24 hours,"[3]; 133 μg/2 μL in HEPES buffer, DIO rats",significant decrease in weight
same,24 h food intake,"[3]; 150 μg/3 μL in HEPES buffer, male HFD fed rats (FIG. 11 legend)",suppresses
same,food intake compared to control,[4]; [6],significant decrease in food intake
same,body weight change after 24 hours,[4]; lateral ventricle,significant decrease in weight
same,"kaolin intake (pica, model of malaise and nausea)",[4],absence of kaolin intake

# Source: patent publication US20260055141A1, “COMPOSITIONS AND METHODS FOR CONTROLLING FOOD INTAKE, ENERGY EXPENDITURE, AND BODY WEIGHT FOR THE TREATMENT OF OBESITY AND METABOLIC DISEASES” (The Trustees of the University of Pennsylvania, priority 2022, published 2026)
